Experimental data taken from patent publication US20130029991A1, “New Phenylsulfamoyl Benzamide Derivatives as Bradykinin Antagonists” (priority 2006, published 2013).
pIC50, pKi: −log10 of the molar value. Counter-ions that a name gives are not always drawn.

Assays:
[1] = target: T1, human recombinant bradykinin B1 receptor (Homo sapiens, UniProt P46663); assay: Human recombinant bradykinin B1 receptor binding; settings: CHO cell membranes, [3H]-[Des-Arg10] Kallidin radioligand; read-out: B1 binding
T1 construct: host or cells: CHO cells
T1 sequence (P46663 1-353): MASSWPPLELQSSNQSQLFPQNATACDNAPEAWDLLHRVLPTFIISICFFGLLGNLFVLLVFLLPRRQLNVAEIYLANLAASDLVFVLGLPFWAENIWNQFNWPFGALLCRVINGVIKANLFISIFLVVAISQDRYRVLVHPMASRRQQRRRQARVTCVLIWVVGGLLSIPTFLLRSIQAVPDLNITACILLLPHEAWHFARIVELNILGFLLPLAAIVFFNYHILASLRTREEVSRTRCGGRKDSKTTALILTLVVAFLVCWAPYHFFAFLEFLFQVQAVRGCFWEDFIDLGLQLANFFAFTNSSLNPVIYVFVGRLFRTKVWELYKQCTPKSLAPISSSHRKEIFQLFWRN
Experimental: 1. Human Recombinant Bradykinin B1 Receptor Binding
Binding assays were carried out on human recombinant bradykinin) receptors (expressed in CHO cells) according to the Euroscreen Technical Data Sheet (Cat.No.:ES-091). 20 μg protein/tube was incubated with [3,4-prolyl-3,4-^3H(N)]-[Des-Arg^10] Kallidin as radioligand. Non specific binding was determined in the presence of 10 μM Lys-des-Arg^9-Bradykinin. The final incubation volume was 250 μl. Samples were incubated for 15 min. at 25° C. then were rapidly vacuum filtered through GF/B filters presoaked for at least 1 h in 0.5% PEI. Radioactivity was determined by liquid scintillation spectroscopy.

[2] = target: T2, recombinant human B1 receptors (Homo sapiens, UniProt P46663); assay: Functional assay: antagonist potency by cytosolic calcium measurement (fluo-4, plate reader fluorimeter) in CHO-B1 cells; assay type: cell-based; settings: CHO-B1 cells, inhibition of LysDABK (EC80)-evoked [Ca2+]i elevation; read-out: B1 func.
T2 construct: host or cells: CHO (CHO-B1)
T2 sequence (P46663 1-353): T1 sequence (P46663 1-353)
Experimental: Assessment of Antagonist Potency at B1 and B2 Receptors In Vitro by Measurement of Cytosolic Calcium Ion Concentration with a Plate Reader Fluorimeter in Cells Expressing Recombinant Human B1 or B2 Receptors
Chinese hamster ovary (CHO) cells stably expressing recombinant human B1 (CHO-B1, Euroscreen) or B2 (CHO-B2, Perkin-Elmer) receptors were cultured in Dulbecco's Modified Eagle's Medium (DMEM) containing 10% Fetal Calf Serum (FCS), 100 U/ml penicillin, 0.1 mg/ml streptomycin, 0.25 μg/ml amphotericin B, 1% Minimum Essential Medium Eagle (MEM), non essential amino acid solution, […], 1% pyruvate (for the B2 cell line). Cells were kept at 37° C. in a humidified incubator in an atmosphere of 5% CO2/95% air and were passaged 1:4 three times a week. Cells were plated at 1.5-2.5×10^4 cell/well on standard 96-well microplates, measurements of cytosolic calcium ion concentration ([Ca^2+]i) were carried out 1-2 days after cell plating.
Measurements of [Ca^2+]i were carried out on CHO-B1 and CHO-B2 cells stably expressing human B1 and B2 receptors, respectively. Cells were grown in standard 96-well microplates and before the measurement were loaded with a fluorescent Ca^2+-sensitive dye, fluo-4/AM (2 μM): after removing the culture medium the dye was added to the cells (dissolved in assay buffer: 145 mM NaCl, 5 mM KCl, 2 mM MgCl2, 2 mM CaCl2, 10 mM HEPES, 20 mM D-glucose, 2 mM probenecid, 100 μl/well) and cells were incubated at 37° C. in a humidified incubator in an atmosphere of 5% CO2/95% air for 40-120 min. To stop dye loading cells were washed twice with assay buffer. After washing, various concentrations of the test compounds (diluted in extracellular medium from a DMSO stock solution, final DMSO concentration was <0.1%) or buffer were added to each well depending on the experimental setup. After incubation at 37° C. for 20-25 min. baseline and agonist-evoked changes of [Ca^2+]i were measured column by column with a plate reader fluorimeter (Fluoroskan Ascent, Labsystems). Excitation and detection of emission was carried out from the bottom of the plate. Filters used for Fluo-4: excitation filter—485 nm, emission filter—538 nm. The whole measurement process was performed at 37° C. and was controlled by custom software Inhibitory potency of the test compounds was assessed by measuring the reduction in the agonist-evoked [Ca^2+]i-elevation in the presence of different concentrations of the compounds. The agonists were LysDABK for CHO-B1, and bradykinin for CHO-B2 cells. Agonists were applied at an EC80 concentration, the EC80-values were derived from daily determined dose-response curves. Fluorescence data were expressed as ΔF/F (fluorescence change normalized to baseline). All treatments on a single plate were measured in multiple wells. Data from all wells with the same treatment were averaged and the average values were used for analysis. Inhibitory potency of a compound at a single concentration point was expressed as percent inhibition of the control agonist response. Sigmoidal concentration-inhibition curves were fitted to the data (derived from at least three independent experiments) and IC50-values were determined as the concentration that produces half of the maximal inhibition caused by the compound.

Structure (SMILES) | pKi [1] | pIC50 [2]
O=C(CNC(=O)c1ccc(S(=O)(=O)Nc2ccccc2Oc2ccccc2)cc1)NCC1CCNCC1 [Example 5, 4-(2-Phenoxy-phenylsulfamoyl)-N-{[(piperidin-4-ylmethyl)-carbamoyl]-methyl}-benzamide hydrochloride] | 7.00 to 7.70 | 7.00 to 7.70
COc1ccc(NS(=O)(=O)c2ccc(C(=O)NCC(=O)NCC3CCNCC3)cc2)c(Oc2ccc(Cl)cc2Cl)c1 [Example 11, 4-[2-(2,4-Dichloro-phenoxy)-4-methoxy-phenylsulfamoyl]-N-{[(piperidin-4-ylmethyl)-carbamoyl]-methyl}-benzamide hydrochloride] | 7.00 to 7.70 | 7.00 to 7.70
O=C(CNC(=O)c1ccc(S(=O)(=O)Nc2cc(F)ccc2Oc2ccc(F)cc2)cc1)NCC1CCNCC1 [Example 15, 4-[5-Fluoro-2-(4-fluoro-phenoxy)-phenylsulfamoyl]-N-{[(piperidin-4-ylmethyl)-carbamoyl]-methyl}-benzamide hydrochloride] | > 7.70 | > 7.70
O=C(CNC(=O)c1ccc(S(=O)(=O)Nc2ccccc2Oc2ccccc2)cc1)NCC(=O)N1CCNCC1 [Example 16, N-[(2-Oxo-2-piperazin-1-yl-ethylcarbamoyl)-methyl]-4-(2-phenoxy-phenylsulfamoyl)-benzamide hydrochloride] | > 7.70 | > 7.70
O=C(CNC(=O)c1ccc(S(=O)(=O)Nc2ccccc2C(=O)c2ccccc2)cc1)NCC1CCNCC1 [Example 18, 4-(2-Benzoyl-phenylsulfamoyl)-N-{[(piperidin-4-ylmethyl)-carbamoyl]-methyl}-benzamide hydrochloride] | > 7.70 | > 7.70
CN(C)CC(C)(C)CNC(=O)CNC(=O)c1ccc(S(=O)(=O)Nc2ccccc2Oc2ccc(Cl)cc2Cl)cc1 [Example 35, 4-[2-(2,4-Dichloro-phenoxy)-phenylsulfamoyl]-N-[(3-dimethylamino-2,2-dimethyl-propylcarbamoyl)-methyl]-benzamide] | > 7.70 | –
CN(CCc1ccncc1)C(=O)CNC(=O)c1ccc(S(=O)(=O)Nc2ccccc2Oc2ccc(Cl)cc2Cl)cc1 [Example 43, 4-[2-(2,4-Dichloro-phenoxy)-phenylsulfamoyl]-N-{[methyl-(2-pyridin-4-yl-ethyl)-carbamoyl]-methyl}-benzamide] | > 7.70 | –
O=C(CNC(=O)c1ccc(S(=O)(=O)Nc2ccccc2Oc2ccc(Cl)cc2Cl)cc1)NCCCCC1CCNCC1 [Example 59, 4-[2-(2,4-Dichloro-phenoxy)-phenylsulfamoyl]-N-[(4-piperidin-4-yl-butylcarbamoyl)-methyl]-benzamide hydrochloride] | > 7.70 | –
N#CCc1ccc(NC(=O)CNC(=O)c2ccc(S(=O)(=O)Nc3ccccc3Oc3ccccc3)cc2)cc1 [Example 73, N-[(4-Cyanomethyl-phenylcarbamoyl)-methyl]-4-(2-phenoxy-phenylsulfamoyl)-benzamide] | > 7.70 | –
O=C(CNC(=O)c1ccc(S(=O)(=O)Nc2ccccc2Nc2ccccc2)cc1)NCC1CCNCC1 [Example 103, 4-(2-Phenylamino-phenylsulfamoyl)-N-{[(piperidin-4-ylmethyl)-carbamoyl]-methyl}-benzamide hydrochloride] | > 7.70 | –

Now from value to molecule:

pKi [1] | pIC50 [2] | Structure (SMILES)
> 7.70 | > 7.70 | O=C(CNC(=O)c1ccc(S(=O)(=O)Nc2ccccc2Oc2ccc(Cl)cc2Cl)cc1)NCC1CCNCC1 [Example 1, 4-[2-(2,4-Dichloro-phenoxy)-phenylsulfamoyl]-N-{[(Piperidin-4-ylmethyl)-carbamoyl]-methyl}-benzamide hydrochloride]
> 7.70 | > 7.70 | O=C(CNC(=O)c1ccc(S(=O)(=O)Nc2ccccc2Oc2ccc(Cl)cc2Cl)cc1)NCCCN1CCCCC1 [Example 2, 4-[2-(2,4-Dichloro-phenoxy)-phenylsulfamoyl]-N-[(3-piperidin-1-yl-propylcarbamoyl)-methyl]-benzamide]
> 7.70 | > 7.70 | O=C(CNC(=O)c1ccc(S(=O)(=O)Nc2ccccc2Oc2ccc(Br)cc2)cc1)NCC1CCNCC1 [Example 3, 4-[2-(4-Bromo-phenoxy)-phenylsulfamoyl]-N-{[(piperidin-4-ylmethyl)-carbamoyl]-methyl}-benzamide trifluoroacetate]
> 7.70 | > 7.70 | O=C(CNC(=O)c1ccc(S(=O)(=O)Nc2cc(F)ccc2Oc2ccc(Br)cc2)cc1)NCC1CCNCC1 [Example 4, 4-[2-(4-Bromo-phenoxy)-5-fluoro-phenylsulfamoyl]-N-{[(piperidin-4-ylmethyl)-carbamoyl]-methyl}-benzamide trifluoroacetate]
> 7.70 | > 7.70 | O=C(NC(Cc1ccccc1)C(=O)NCC1CCNCC1)c1ccc(S(=O)(=O)Nc2ccccc2Oc2ccc(Cl)cc2Cl)cc1 (stereo not shown) [Example 6, 4-[2-(2,4-Dichloro-phenoxy)-phenylsulfamoyl]-N-{2-phenyl-1-[(piperidin-4-ylmethyl)-carbamoyl]-ethyl}-benzamide hydrochloride]
> 7.70 | > 7.70 | O=C(CNC(=O)c1ccc(S(=O)(=O)Nc2cc(F)ccc2Oc2ccccc2)cc1)NCC1CCNCC1 [Example 7, 4-(5-Fluoro-2-phenoxy-phenylsulfamoyl)-N-{[(piperidin-4-ylmethyl)-carbamoyl]-methyl}-benzamide hydrochloride]
> 7.70 | > 7.70 | C[C@H](NC(=O)c1ccc(S(=O)(=O)Nc2ccccc2Oc2ccc(Cl)cc2Cl)cc1)C(=O)NCC1CCNCC1 [Example 8, 4-[2-(2,4-Dichloro-phenoxy)-phenylsulfamoyl]-N—{(S)-1-[(piperidin-4-ylmethyl)-carbamoyl]-ethyl}-benzamide hydrochloride]
> 7.70 | > 7.70 | O=C(CNC(=O)c1ccc(S(=O)(=O)Nc2ccccc2Oc2ccccc2)cc1)NCCC1CCNCC1 [Example 10, 4-(2-Phenoxy-phenylsulfamoyl)-N-[(2-piperidin-4-yl-ethylcarbamoyl)-methyl]-benzamide hydrochloride]
> 7.70 | > 7.70 | O=C(CNC(=O)c1ccc(S(=O)(=O)Nc2ccccc2Oc2ccc(F)cc2)cc1)NCC1CCNCC1 [Example 12, 4-[2-(4-Fluoro-phenoxy)-phenylsulfamoyl]-N-{[(piperidin-4-ylmethyl)-carbamoyl]-methyl}-benzamide hydrochloride]
> 7.70 | > 7.70 | O=C(CNC(=O)c1ccc(S(=O)(=O)Nc2cc(F)ccc2Oc2ccc(F)cc2)cc1)NCCC1CCNCC1 [Example 13, 4-[5-Fluoro-2-(4-fluoro-phenoxy)-phenylsulfamoyl]-N-[(2-piperidin-4-yl-ethylcarbamoyl)-methyl]-benzamide hydrochloride]
> 7.70 | > 7.70 | N=C(N)N1CCC(CNC(=O)CNC(=O)c2ccc(S(=O)(=O)Nc3ccccc3Oc3ccc(Cl)cc3Cl)cc2)CC1 [Example 14, N-{[(1-Carbamimidoyl-piperidin-4-ylmethyl)-carbamoyl]-methyl}-4-[2-(2,4-dichloro-phenoxy)-phenylsulfamoyl]-benzamide hydrochloride]
